In patent publication US7507839B2, “Therapeutic ion channel blocking agents and methods of use thereof” (The Walter and Eliza Hall Institute of Medical Research, priority 2002, dated 2009):
One block for each compound: values may come before it.

What was measured:
Kv1.2 = Kv1.2 (Homo sapiens, UniProt P16389); experiment: Whole-cell patch-clamp, Kv1.2; format: cell-based
Kv1.3 = Kv1.3 (UniProt P16390); experiment: Whole-cell patch-clamp block of Kv1.3 current; format: cell-based; details: for Kd: L929 cells stably expressing mKv1.3 or activated human T cells, fit of normalized peak current to Hill equation
Method: The effectiveness of the generated compounds in blocking the Kv1.3 current was assayed on L929 cells stably expressing mKv1.3 or on activated human T cells. The generation of this cell line has been previously described (Grissmer et al. (1995) Mol. Pharmacol. 45: 1227). The cells were grown in Dulbecco's modified Eagle's medium containing 10% fetal calf serum, 2 mM L-glutamine, 1 mM Na^+ pyruvate, 100 units/ml penicillin, 100 μg/ml streptomycin and 250 μg G418 (to keep them under selection pressure). The cells were studied in the whole-cell configuration of the patch-clamp technique. The holding potential in all experiments was −80 mV. Currents were recorded in normal Ringer solution (160 mM NaCl, 4.5 mM KCl, 2 mM CaCl2, 1 mM MgCl2, 10 mM HEPES, pH 7.4, 290-310 mOsm) with an internal pipette solution containing 134 mM KF, 2 mM MgCl2, 10 mM HEPES, 10 mM EGTA (pH 7.2, 290-310 mOsm). If currents exceeded 2 nA 60-80% series resistance compensation was used. 200-ms depolarising pulses to 40 mV were applied every 30 s (Grissmer at al. (1995) Mol. Pharmacol. 45: 1227). Each compound was tested twice at two different concentrations. Kd values were determined by fitting the reduction of the normalized peak current to the Hill equation. […]

[1] = Solubility in aqueous media; format: physicochemical; details: judged by whether testable in the cell-based T-cell proliferation assay
Source text: (§1) The comparative example 4 was thus considered to lack therapeutically use.
This was unexpected given the lipophilicity of these compounds. The n-butyl fragment in example 2 is considerably more lipophilic than the phenyl group located in the equivalent position of comparative example 4 (fragment hydrophobicity value 2.5 verses 1.9 respectively).

Kv1.1 = Kv1.1 (Homo sapiens, UniProt Q09470); experiment: Whole-cell patch-clamp, Kv1.1; format: cell-based
Sequence of Kv1.1 (Q09470 whole entry): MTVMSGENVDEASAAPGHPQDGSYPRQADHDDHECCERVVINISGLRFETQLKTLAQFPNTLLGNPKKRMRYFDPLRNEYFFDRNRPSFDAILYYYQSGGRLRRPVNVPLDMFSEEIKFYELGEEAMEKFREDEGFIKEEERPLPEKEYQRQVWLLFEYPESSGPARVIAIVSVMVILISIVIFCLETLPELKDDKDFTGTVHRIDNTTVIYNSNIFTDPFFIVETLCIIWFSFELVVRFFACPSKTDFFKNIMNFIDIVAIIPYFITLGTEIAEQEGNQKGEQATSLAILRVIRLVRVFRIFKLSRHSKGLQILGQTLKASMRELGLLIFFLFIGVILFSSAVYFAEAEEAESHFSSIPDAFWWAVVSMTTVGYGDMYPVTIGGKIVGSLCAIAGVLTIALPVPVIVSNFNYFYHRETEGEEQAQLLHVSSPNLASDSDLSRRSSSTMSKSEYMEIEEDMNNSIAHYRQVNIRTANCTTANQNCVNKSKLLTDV

[2] = test system: peripheral blood mononuclear cells; experiment: [3H]-Thymidine incorporation assay; format: cell-based, human; details: anti-CD3 stimulated PBMC, 48 h; for Normalised [3H]-TdR incorporation: untreated control = 1
Method: [^3H]-thymidine incorporation is a widely used test to assay the proliferative activity of human and rodent lymphocytes. As cells divide [^3H]-thymidine will be incorporated into the newly synthesised DNA of the resulting daughter cells. The faster cells grow the more radioactive [^3H]-thymidine will be incorporated. Any compound that inhibits lymphocytes proliferation will reduce the uptake of radioactivity by the cells treated with it compared to the untreated controls.
Example 2 was tested to determine its ability to inhibit [H]-thymidine incorporation. Resting peripheral blood mononuclear cells from healthy volunteers were seeded at 2×10^5 cells per well in medium (RPMI 1640 supplemented 10% fetal calf serum, 2 mM glutamine, 1 mM sodium pyruvate, 1% nonessential amino acids, 100 units/ml penicillin, 100 μg/ml streptomycin and 50 μM β-mercaptoethanol) in flat-bottom 96 well plates (final volume 200 μl). Cells were pre-incubated with the compound of example 2 for 60 min, and were stimulated with 5 ng/ml anti-CD3 Ab) for 48 h. [^3H]-Thymidine (1 μCi per well) was added for the last 6 h. Cells were harvested onto glass fibre filters and radioactivity measured in a scintillation counter. All experiments were done in triplicate.

Kv1.4 = Kv1.4 (Homo sapiens, UniProt P22459); experiment: Whole-cell patch-clamp, Kv1.4; format: cell-based
Sequence of Kv1.4 (P22459 whole entry): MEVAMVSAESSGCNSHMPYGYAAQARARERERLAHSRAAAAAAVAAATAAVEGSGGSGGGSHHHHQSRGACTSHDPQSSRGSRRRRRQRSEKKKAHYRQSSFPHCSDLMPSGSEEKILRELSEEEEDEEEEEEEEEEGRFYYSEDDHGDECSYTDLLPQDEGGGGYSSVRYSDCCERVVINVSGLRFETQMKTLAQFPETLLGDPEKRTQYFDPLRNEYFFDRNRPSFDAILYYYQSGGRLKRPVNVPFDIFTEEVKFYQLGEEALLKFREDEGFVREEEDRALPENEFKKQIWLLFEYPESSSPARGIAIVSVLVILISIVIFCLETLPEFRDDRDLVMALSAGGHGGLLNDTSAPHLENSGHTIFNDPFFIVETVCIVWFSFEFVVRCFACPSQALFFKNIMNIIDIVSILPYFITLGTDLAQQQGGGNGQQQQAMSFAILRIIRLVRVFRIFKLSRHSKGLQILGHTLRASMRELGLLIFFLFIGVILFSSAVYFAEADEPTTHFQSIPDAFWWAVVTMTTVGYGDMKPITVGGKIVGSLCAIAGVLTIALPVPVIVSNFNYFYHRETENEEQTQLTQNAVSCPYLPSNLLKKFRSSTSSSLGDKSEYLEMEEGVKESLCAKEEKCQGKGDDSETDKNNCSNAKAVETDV

Kv1.5 = Kv1.5 (Homo sapiens, UniProt P22460); experiment: Whole-cell patch-clamp, Kv1.5; format: cell-based
Sequence of Kv1.5 (P22460 whole entry): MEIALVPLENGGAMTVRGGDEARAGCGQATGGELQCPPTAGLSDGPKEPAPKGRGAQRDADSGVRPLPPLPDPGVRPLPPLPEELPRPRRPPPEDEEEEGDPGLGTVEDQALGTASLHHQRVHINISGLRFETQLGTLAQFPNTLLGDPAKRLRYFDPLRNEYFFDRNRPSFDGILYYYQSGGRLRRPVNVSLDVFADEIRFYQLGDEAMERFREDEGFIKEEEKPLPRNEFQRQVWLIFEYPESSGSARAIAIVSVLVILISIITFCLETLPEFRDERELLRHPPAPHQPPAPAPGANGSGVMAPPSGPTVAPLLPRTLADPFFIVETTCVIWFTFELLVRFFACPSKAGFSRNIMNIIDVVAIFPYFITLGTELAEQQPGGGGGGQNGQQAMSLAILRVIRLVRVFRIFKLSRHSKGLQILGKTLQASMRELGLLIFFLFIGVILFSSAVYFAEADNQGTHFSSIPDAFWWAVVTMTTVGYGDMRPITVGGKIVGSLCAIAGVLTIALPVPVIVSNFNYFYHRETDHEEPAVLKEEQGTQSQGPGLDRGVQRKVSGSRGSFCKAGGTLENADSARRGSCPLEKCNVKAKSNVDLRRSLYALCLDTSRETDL

IKCa1 = IKCa1 (Homo sapiens, UniProt O15554); experiment: Whole-cell patch-clamp, IKCa1; format: cell-based
Stability = format: physicochemical
Source text: as §1

SKMI = SKMI (Homo sapiens, UniProt P35499); experiment: Whole-cell patch-clamp, SKMI; format: cell-based; details: at 10 μM
Sequence of SKMI (P35499 whole entry): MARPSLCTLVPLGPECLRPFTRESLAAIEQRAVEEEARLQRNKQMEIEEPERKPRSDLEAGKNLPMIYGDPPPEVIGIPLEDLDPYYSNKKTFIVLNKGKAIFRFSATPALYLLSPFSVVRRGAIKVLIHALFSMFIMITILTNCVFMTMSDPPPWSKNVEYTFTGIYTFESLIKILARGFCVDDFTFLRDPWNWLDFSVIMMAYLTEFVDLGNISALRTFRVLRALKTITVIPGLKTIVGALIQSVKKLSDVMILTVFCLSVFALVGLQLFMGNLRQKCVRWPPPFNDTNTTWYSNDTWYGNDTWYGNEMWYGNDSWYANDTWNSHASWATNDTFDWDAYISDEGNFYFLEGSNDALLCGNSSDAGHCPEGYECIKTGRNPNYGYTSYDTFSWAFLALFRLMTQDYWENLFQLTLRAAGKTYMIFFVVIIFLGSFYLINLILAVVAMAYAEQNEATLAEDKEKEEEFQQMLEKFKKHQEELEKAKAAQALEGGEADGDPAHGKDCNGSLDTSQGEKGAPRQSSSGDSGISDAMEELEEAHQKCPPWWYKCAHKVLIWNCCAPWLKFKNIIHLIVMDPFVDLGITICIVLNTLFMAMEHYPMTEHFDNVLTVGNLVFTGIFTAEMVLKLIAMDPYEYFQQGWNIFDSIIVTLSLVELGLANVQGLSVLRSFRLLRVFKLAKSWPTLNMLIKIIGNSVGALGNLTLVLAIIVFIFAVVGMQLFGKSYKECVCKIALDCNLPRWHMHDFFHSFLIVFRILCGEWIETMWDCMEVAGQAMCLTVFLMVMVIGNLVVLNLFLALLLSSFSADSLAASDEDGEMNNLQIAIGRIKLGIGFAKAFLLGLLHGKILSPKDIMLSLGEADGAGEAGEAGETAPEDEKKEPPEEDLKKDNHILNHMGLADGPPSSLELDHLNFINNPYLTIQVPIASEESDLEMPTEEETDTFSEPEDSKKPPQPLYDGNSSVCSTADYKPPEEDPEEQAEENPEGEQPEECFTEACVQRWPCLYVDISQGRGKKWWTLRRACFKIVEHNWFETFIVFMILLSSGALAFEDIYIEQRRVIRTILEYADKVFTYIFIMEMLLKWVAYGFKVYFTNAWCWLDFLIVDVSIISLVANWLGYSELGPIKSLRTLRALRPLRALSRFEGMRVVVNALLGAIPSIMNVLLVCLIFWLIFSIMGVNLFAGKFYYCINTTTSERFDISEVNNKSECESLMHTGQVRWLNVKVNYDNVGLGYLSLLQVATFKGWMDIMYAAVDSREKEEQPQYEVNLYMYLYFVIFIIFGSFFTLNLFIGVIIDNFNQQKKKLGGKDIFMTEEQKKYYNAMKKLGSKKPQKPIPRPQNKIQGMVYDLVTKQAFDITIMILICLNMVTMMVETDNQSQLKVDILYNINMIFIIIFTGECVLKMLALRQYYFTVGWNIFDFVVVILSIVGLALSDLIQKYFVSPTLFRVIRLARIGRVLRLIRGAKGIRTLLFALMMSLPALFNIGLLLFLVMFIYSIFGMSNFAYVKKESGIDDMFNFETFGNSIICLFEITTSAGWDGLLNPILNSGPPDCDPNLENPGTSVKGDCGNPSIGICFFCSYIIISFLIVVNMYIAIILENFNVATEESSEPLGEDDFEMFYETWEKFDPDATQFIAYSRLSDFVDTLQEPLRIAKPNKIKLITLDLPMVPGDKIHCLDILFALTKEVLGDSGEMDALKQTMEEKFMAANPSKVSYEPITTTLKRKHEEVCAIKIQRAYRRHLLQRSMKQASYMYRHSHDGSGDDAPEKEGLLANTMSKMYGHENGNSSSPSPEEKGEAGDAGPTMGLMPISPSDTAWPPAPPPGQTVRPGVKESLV

Sequence of Kv1.2 (P16389 whole entry): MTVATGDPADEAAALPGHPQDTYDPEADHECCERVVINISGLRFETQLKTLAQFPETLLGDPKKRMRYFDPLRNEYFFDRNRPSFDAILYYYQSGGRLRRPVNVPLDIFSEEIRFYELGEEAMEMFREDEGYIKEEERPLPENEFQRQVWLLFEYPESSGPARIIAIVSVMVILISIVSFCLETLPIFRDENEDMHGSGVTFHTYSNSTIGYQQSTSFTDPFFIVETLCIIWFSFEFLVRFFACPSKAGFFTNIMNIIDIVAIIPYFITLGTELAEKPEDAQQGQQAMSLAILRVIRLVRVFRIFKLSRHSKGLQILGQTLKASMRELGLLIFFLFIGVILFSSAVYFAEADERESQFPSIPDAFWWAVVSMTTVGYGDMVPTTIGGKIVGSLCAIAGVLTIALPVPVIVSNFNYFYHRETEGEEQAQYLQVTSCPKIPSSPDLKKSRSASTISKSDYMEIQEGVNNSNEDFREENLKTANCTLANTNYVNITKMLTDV

Kd (Kv1.3): 7000 nM
Structure (SMILES): COc1c(C(C)=O)c(OCc2ccccc2COc2c(C(C)=O)c(OC)c3ccoc3c2OC)c(OC)c2occc12 [compound 6, reference compound]

Kd (Kv1.3): 70000 nM
Structure (SMILES): COc1c(C(C)=O)c(O)c(OC)c2occc12 [Comparative Example 1 (Khellinone)]

Kd (Kv1.1): 320 nM | Kd (Kv1.2): 250 nM | Kind of block (Kv1.3) (Kv1.3): Block phasic | Kd (Kv1.3): 680 nM | EC50 ([2]; Homo sapiens, read-out: EC50, inhibition of [3H]-thymidine incorporation): ~800 nM
Structure (SMILES): COc1c(C(C)=O)c(OCCCCCCOc2c(C(C)=O)c(OC)c3ccoc3c2OC)c(OC)c2occc12 [Example 2]
Solubility in aqueous media [1]: soluble enough in aqueous media to be tested | Normalised [3H]-TdR incorporation ([2]; 100 nM): 0.86 +/− 0.04 | Normalised [3H]-TdR incorporation ([2]; 250 nM): 0.76 +/− 0.06 | Normalised [3H]-TdR incorporation ([2]; 1 μM): 0.38 +/− 0.05 | Normalised [3H]-TdR incorporation ([2]; 10 μM): 0.01 +/− 0.003

Kd (Kv1.4): 2200 nM | Kd (Kv1.1): 3000 nM | Kd (Kv1.5): 1100 nM | Kd (IKCa1): > 20000 nM | Stability (Stability): good stability | Effect on SKMI (SKMI): No effect | Kd (Kv1.2): 5000 nM | Kd (Kv1.3): 280 nM
Structure (SMILES): COc1c(C(C)=O)c(OCc2ccc(COc3c(C(C)=O)c(OC)c4ccoc4c3OC)cc2)c(OC)c2occc12 [compound 4]
Solubility in aqueous media [1]: so poorly soluble in aqueous media

Kd (Kv1.3): 4000 nM
Structure (SMILES): COc1c(C(C)=O)c(OCCOCCOc2c(C(C)=O)c(OC)c3ccoc3c2OC)c(OC)c2occc12 [Example 5]
Solubility in aqueous media [1]: significantly more soluble in aqueous conditions than comparative example 2

Kd (Kv1.2): 1500 nM | Kd (Kv1.3): 820 nM
Structure (SMILES): COc1c(C(C)=O)c(OCCCCCOc2c(C(C)=O)c(OC)c3ccoc3c2OC)c(OC)c2occc12 [Example 1]
Solubility in aqueous media [1]: soluble enough in aqueous media to be tested

Kd (Kv1.3): 560 nM
Structure (SMILES): COc1c(C(C)=O)c(OCc2cccc(COc3c(C(C)=O)c(OC)c4ccoc4c3OC)c2)c(OC)c2occc12 [compound 5, reference compound]

More lines, now with the values behind:

Structure (SMILES): COc1c(C(C)=O)c(OCc2ccc(COc3cc4occc4c(OC)c3C(C)=O)cc2)cc2occc12 [Example 4, 1,4-bis(5-acetyl-4-methoxybenzofuran-6-yloxymethyl)benzene]
Effect on Kv1.2 (Kv1.2; at 5 μM): No effect | Kd (Kv1.3): 1100 nM

Structure (SMILES): COC(=O)c1cc(COc2c(C(C)=O)c(OC)c3ccoc3c2OC)ccc1COc1c(C(C)=O)c(OC)c2ccoc2c1OC [Example 7, 2,5-Bis(5-acetyl-4,7-dimethoxy-6-benzofuran-6-yloxymethyl)benzoic acid, methyl ester]
melting point: 87 to 89 °C | Kd (Kv1.3): 3000 nM

Structure (SMILES): O=c1ccc2cc3ccoc3c(OCc3ccc(COc4c5occc5cc5ccc(=O)oc45)cc3)c2o1 [compound 3, reference compound]
Kd (Kv1.3): 17000 nM

Structure (SMILES): COc1c(C(C)=O)c(OCc2ccc(COc3c(C(C)=O)c(OC)c4ccoc4c3OC)c(C(=O)O)c2)c(OC)c2occc12 [Example 8, 2,5-Bis(5-acetyl-4,7-dimethoxybenzofuran-6-yloxymethyl)benzoic acid]
Kd (Kv1.3): 5000 nM

Structure (SMILES): COc1c2occc2cc2ccc(=O)oc12 [Comparative Example 2 (3-MOP)]
Kd (Kv1.3): 160000 nM
